# Data from patent US8530648B2, “Diaza-spiro[5.5]undecanes” (Novartis AG, priority 2009, dated 2013).
# Columns and labels:
# hOx1R = hOx1R (Homo sapiens (Human), UniProt O43613); assay: Calcium accumulation in cells (FLIPR), hOx1R; assay type: cell-based; details: for Ki: inhibition of orexin A induced calcium accumulation, Cheng and Prusoff correction; for inhibition at 10 µM: measured at a concentration of 10 μM of compound
# Experimental: (§1) Calcium Accumulation in Cells (FLIPR):
# (§2) Cells expressing human orexin 1 or human orexin 2 receptors, were seeded at 8,000 cells/well in 384 well black-walled clear bottom, poly-D-lysine coated plates. After 24 h, the medium was removed and cells were washed once with phosphate buffered saline and serum-deprived overnight in assay buffer (130 mM NaCl, 5.4 mM KCl, 1.8 mM CaCl2, 0.8 mM MgSO4, 0.9 mM NaH2PO4, 25 mM glucose, 20 mM HEPES, pH 7.4) containing bovine serum albumin (1% w/v).
# (§3) On the day of the experiment, the cells seeded in black plates were treated with assay buffer containing the Ca^2+ sensitive fluorescent dye Fluo-4-AM (2 μM), and probenecid (0.1 mM). After 1 h plates were washed twice with, and resuspended in, assay buffer containing probenecid (0.1 mM) using a multi plate washer. […] Fluorescence measurements were then continued every 1 S for 120 S followed by every 4 S for 240 S.
# (§4) The measurements were typically made in two sequences:
# (§5) Compounds of formula I were tested usually in a concentration range from 10^−9 M to 10^−5 M.
# (§6) In the second round, performed one hour later (to allow for equilibration), Orexin A was tested either in the absence (calibration curves, Orexin A agonist controls) or in the presence of compounds of formula I to determine antagonism.
# hOx2R = hOx2R (Homo sapiens (Human), UniProt O43614); assay: Calcium accumulation in cells (FLIPR), hOx2R; assay type: cell-based; details: for Ki: inhibition of orexin A induced calcium accumulation, Cheng and Prusoff correction; for inhibition at 10 µM: measured at a concentration of 10 μM of compound
# Sequence of hOx2R (O43614 whole entry): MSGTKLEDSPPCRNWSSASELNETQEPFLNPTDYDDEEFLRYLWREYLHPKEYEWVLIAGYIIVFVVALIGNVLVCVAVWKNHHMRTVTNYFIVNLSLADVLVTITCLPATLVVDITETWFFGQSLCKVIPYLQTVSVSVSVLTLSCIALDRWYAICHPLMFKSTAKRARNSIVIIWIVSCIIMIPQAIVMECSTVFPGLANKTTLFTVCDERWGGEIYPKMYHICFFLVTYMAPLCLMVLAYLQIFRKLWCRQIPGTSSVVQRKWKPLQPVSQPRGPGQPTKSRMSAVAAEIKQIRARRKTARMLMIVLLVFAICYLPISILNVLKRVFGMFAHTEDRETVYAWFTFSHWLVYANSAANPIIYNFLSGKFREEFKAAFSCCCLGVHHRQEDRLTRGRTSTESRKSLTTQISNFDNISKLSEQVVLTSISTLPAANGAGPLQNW
# Experimental: as §1, §2, §3, §4, §5, §6
# Sequence of hOx1R (O43613 whole entry): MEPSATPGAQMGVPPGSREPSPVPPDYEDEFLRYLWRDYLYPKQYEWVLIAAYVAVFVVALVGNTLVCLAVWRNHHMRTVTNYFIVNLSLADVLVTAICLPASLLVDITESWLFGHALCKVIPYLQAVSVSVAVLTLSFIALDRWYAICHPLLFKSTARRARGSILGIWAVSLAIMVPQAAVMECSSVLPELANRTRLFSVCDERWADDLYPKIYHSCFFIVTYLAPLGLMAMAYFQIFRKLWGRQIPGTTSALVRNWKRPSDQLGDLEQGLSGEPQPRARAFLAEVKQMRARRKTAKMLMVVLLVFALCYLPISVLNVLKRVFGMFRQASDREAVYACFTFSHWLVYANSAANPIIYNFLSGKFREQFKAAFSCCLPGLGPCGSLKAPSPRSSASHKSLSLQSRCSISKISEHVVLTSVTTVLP
SMILES,Ki (hOx1R) [nM],Ki (hOx2R) [nM],inhibition at 10 µM (hOx1R) [%],inhibition at 10 µM (hOx2R) [%]
"O=C1N(Cc2cncn2-c2ccccc2)CCCC12CCN(c1cnc3ccccc3n1)CC2 [Example 110, 2-((1-phenyl-1H-imidazol-5-yl)methyl)-9-(quinoxalin-2-yl)-2,9-diazaspiro[5.5]undecan-1-one]",4210,945,–,–
"Cc1cc(CN2CCCC3(CCN(c4cnc5ccccc5n4)CC3)C2=O)c2ccccc2n1 [Example 33, 2-((2-methylquinolin-4-yl)methyl)-9-(quinoxalin-2-yl)-2,9-diazaspiro[5.5]undecan-1-one]",2360,282,–,–
"O=C1N(Cc2ccc(C(F)(F)F)nc2)CCCC12CCN(c1cnc3ccccc3n1)CC2 [Example 90, 9-(quinoxalin-2-yl)-2-((6-(trifluoromethyl)pyridin-3-yl)methyl)-2,9-diazaspiro[5.5]undecan-1-one]",–,–,17,12
"O=C1N(Cc2ccc(Cl)nc2)CCCC12CCN(c1cnc3ccccc3n1)CC2 [Example 78, 2-((6-chloropyridin-3-yl)methyl)-9-(quinoxalin-2-yl)-2,9-diazaspiro[5.5]undecan-1-one]",–,–,15,32
"Cc1cc(CN2CCCC3(CCN(c4cnc5ccccc5n4)CC3)C2=O)ccn1 [Example 68, 2-((2-methylpyridin-4-yl)methyl)-9-(quinoxalin-2-yl)-2,9-diazaspiro[5.5]undecan-1-one]",–,830,29,–
"O=C1N(Cc2cccc3c2OCCN3)CCCC12CCN(c1cnc3ccccc3n1)CC2 [Example 132, 2-((3,4-dihydro-2H-benzo[b][1,4]oxazin-8-yl)methyl)-9-(quinoxalin-2-yl)-2,9-diazaspiro[5.5]undecan-1-one]",3180,555,–,–
"N#Cc1cccc(CN2CCCC3(CCN(c4cnc5ccccc5n4)CC3)C2=O)c1 [Example 92, 3-((1-oxo-9-(quinoxalin-2-yl)-2,9-diazaspiro[5.5]undecan-2-yl)methyl)benzonitrile]",3060,649,–,–
"Cc1cccc(CN2CCCC3(CCN(c4cnc5ccccc5n4)CC3)C2=O)n1 [Example 97, 2-((6-methylpyridin-2-yl)methyl)-9-(quinoxalin-2-yl)-2,9-diazaspiro[5.5]undecan-1-one]",–,–,14,33
"COc1cc(CN2CCCC3(CCN(c4cnc5ccccc5n4)CC3)C2=O)ccn1 [Example 45, 2-((2-methoxypyridin-4-yl)methyl)-9-(quinoxalin-2-yl)-2,9-diazaspiro[5.5]undecan-1-one]",–,–,19,43
"O=C1N(Cc2c[nH]c3ccccc23)CCCC12CCN(c1nccc(-c3ccncc3)n1)CC2 [Example 166, 2-((1H-indol-3-yl)methyl)-9-(4-(pyridin-4-yl)pyrimidin-2-yl)-2,9-diazaspiro[5.5]undecan-1-one]",1160,156,–,–
"O=C1N(Cc2c[nH]c3ccccc23)CCCC12CCN(c1cc(-c3ccccc3)ncn1)CC2 [Example 165, 2-((1H-indol-3-yl)methyl)-9-(6-phenylpyrimidin-4-yl)-2,9-diazaspiro[5.5]undecan-1-one]",468,115,–,–
"O=C1N(Cc2cncn2Cc2ccccc2)CCCC12CCN(c1cnc3ccccc3n1)CC2 [Example 118, 2-((1-benzyl-1H-imidazol-5-yl)methyl)-9-(quinoxalin-2-yl)-2,9-diazaspiro[5.5]undecan-1-one]",1840,197,–,–
"O=C1N(Cc2c[nH]c3ccccc23)CCCC12CCN(c1nnc(-c3ccccc3)s1)CC2 [Example 171, 2-((1H-indol-3-yl)methyl)-9-(5-phenyl-1,3,4-thiadiazol-2-yl)-2,9-diazaspiro[5.5]undecan-1-one]",2480,786,–,–
"COc1ccnc(CN2CCCC3(CCN(c4cnc5ccccc5n4)CC3)C2=O)c1OC [Example 91, 2-((3,4-dimethoxypyridin-2-yl)methyl)-9-(quinoxalin-2-yl)-2,9-diazaspiro[5.5]undecan-1-one]",2870,–,–,38
"O=C1N(Cc2cccc(Cl)c2)CCCC12CCN(c1nccc(-c3ccccc3)n1)CC2 [Example 29, 2-(3-chlorobenzyl)-9-(4-phenylpyrimidin-2-yl)-2,9-diazaspiro[5.5]undecan-1-one]",1700,614,–,–
"Cn1c(CN2CCCC3(CCN(c4cnc5ccccc5n4)CC3)C2=O)nc2ccccc21 [Example 30, 2-((1-methyl-1H-benzo[d]imidazol-2-yl)methyl)-9-(quinoxalin-2-yl)-2,9-diazaspiro[5.5]undecan-1-one]",–,–,17,33

SMILES,Ki (hOx1R) [nM],Ki (hOx2R) [nM],inhibition at 10 µM (hOx1R) [%],inhibition at 10 µM (hOx2R) [%]
"O=C1N(Cc2ccc3[nH]ccc3c2)CCCC12CCN(c1cnc3ccccc3n1)CC2 [Example 123, 2-((1H-indol-5-yl)methyl)-9-(quinoxalin-2-yl)-2,9-diazaspiro[5.5]undecan-1-one]",–,–,11,24
"O=C1N(Cc2cc(=O)[nH]c3ccccc23)CCCC12CCN(c1cnc3ccccc3n1)CC2 [Example 96, 4-((1-oxo-9-(quinoxalin-2-yl)-2,9-diazaspiro[5.5]undecan-2-yl)methyl)quinolin-2(1H)-one]",2400,631,–,–
"COc1cccc(CN2CCCC3(CCN(c4cnc5ccccc5n4)CC3)C2=O)c1OC [Example 18, 2-(2,3-dimethoxybenzyl)-9-(quinoxalin-2-yl)-2,9-diazaspiro[5.5]undecan-1-one]",–,782,3,–
"O=C1N(Cc2ccnc(Br)c2)CCCC12CCN(c1cnc3ccccc3n1)CC2 [Example 72, 2-((2-bromopyridin-4-yl)methyl)-9-(quinoxalin-2-yl)-2,9-diazaspiro[5.5]undecan-1-one]",3100,452,–,–
"Cc1noc(-c2ccccc2)c1CN1CCCC2(CCN(c3cnc4ccccc4n3)CC2)C1=O [Example 32, 2-((3-methyl-5-phenylisoxazol-4-yl)methyl)-9-(quinoxalin-2-yl)-2,9-diazaspiro[5.5]undecan-1-one]",1280,138,–,–
"COc1ccc2[nH]c(N3CCC4(CCCN(Cc5c[nH]c6ccccc56)C4=O)CC3)nc2c1 [Example 159, 2-((1H-indol-3-yl)methyl)-9-(5-methoxy-1H-benzo[d]imidazol-2-yl)-2,9-diazaspiro[5.5]undecan-1-one]",–,745,24,–
"Cc1nnc(N2CCC3(CCCN(Cc4c[nH]c5ccccc45)C3=O)CC2)c2ccccc12 [Example 157, 2-((1H-indol-3-yl)methyl)-9-(4-methylphthalazin-1-yl)-2,9-diazaspiro[5.5]undecan-1-one]",1700,320,–,–
"O=C1N(Cc2noc(C3CCC3)n2)CCCC12CCN(c1cnc3ccccc3n1)CC2 [Example 89, 2-((5-cyclobutyl-1,2,4-oxadiazol-3-yl)methyl)-9-(quinoxalin-2-yl)-2,9-diazaspiro[5.5]undecan-1-one]",–,–,29,24
"Cn1cc(-c2ccccc2CN2CCCC3(CCN(c4cnc5ccccc5n4)CC3)C2=O)cn1 [Example 51, 2-(2-(1-methyl-1H-pyrazol-4-yl)benzyl)-9-(quinoxalin-2-yl)-2,9-diazaspiro[5.5]undecan-1-one]",–,–,57,32
"Cc1nnc(-c2ccc(CN3CCCC4(CCN(c5cnc6ccccc6n5)CC4)C3=O)cc2)o1 [Example 109, 2-(4-(5-methyl-1,3,4-oxadiazol-2-yl)benzyl)-9-(quinoxalin-2-yl)-2,9-diazaspiro[5.5]undecan-1-one]",3140,1240,–,–
"O=C1N(Cc2c[nH]c3ccccc23)CCCC12CCN(c1nc3ccccc3o1)CC2 [Example 40, 2-((1H-indol-3-yl)methyl)-9-(benzo[d]oxazol-2-yl)-2,9-diazaspiro[5.5]undecan-1-one]",1020,98,–,–
"O=C1N(Cc2c[nH]c3ccccc23)CCCC12CCN(c1cnc3nccnc3c1)CC2 [Example 146, 2-((1H-indol-3-yl)methyl)-9-(pyrido[3,2-b]pyrazin-7-yl)-2,9-diazaspiro[5.5]undecan-1-one]",–,621,29,–
"O=C1N(Cc2cnn3ccccc23)CCCC12CCN(c1cnc3ccccc3n1)CC2 [Example 79, 2-(pyrazolo[1,5-a]pyridin-3-ylmethyl)-9-(quinoxalin-2-yl)-2,9-diazaspiro[5.5]undecan-1-one]",2150,232,–,–
"Cc1cc(CN2CCCC3(CCN(c4cnc5ccccc5n4)CC3)C2=O)no1 [Example 88, 2-((5-methylisoxazol-3-yl)methyl)-9-(quinoxalin-2-yl)-2,9-diazaspiro[5.5]undecan-1-one]",–,–,11,25
"O=C1N(Cc2ccccn2)CCCC12CCN(c1cnc3ccccc3n1)CC2 [Example 62, 2-(pyridin-2-ylmethyl)-9-(quinoxalin-2-yl)-2,9-diazaspiro[5.5]undecan-1-one]",–,833,29,–
"CN1CCc2c(CN3CCCC4(CCN(c5cnc6ccccc6n5)CC4)C3=O)cccc21 [Example 145, 2-((1-methylindolin-4-yl)methyl)-9-(quinoxalin-2-yl)-2,9-diazaspiro[5.5]undecan-1-one]",–,636,–,–
